Species on record: Rattus norvegicus
Assay: DrugMatrix - Regimen: Daily Repeat
Type: toxicity, organism-based, Sprague-Dawley
Parameters: regimen Daily Repeat, gender Male, age 6-8 weeks
Details: in vivo, iv, vehicle 100 % SALINE; for ABSOLUTE BASOPHIL / ABSOLUTE EOSINOPHIL / ABSOLUTE LYMPHOCYTE / ABSOLUTE MONOCYTE / ABSOLUTE SEGMENTED NEUTROPHIL / BASOPHIL / EOSINOPHIL / ERYTHROCYTE COUNT / HEMATOCRIT / HEMOGLOBIN / LEUKOCYTE COUNT / LYMPHOCYTE / MEAN CORPUSCULAR HEMOGLOBIN / MEAN CORPUSCULAR HEMOGLOBIN CONCENTRATION / MEAN CORPUSCULAR VOLUME / MONOCYTE / NEUTROPHIL / NUCLEATED RED BLOOD CELLS / PLATELET COUNT: tissue Blood; for ALANINE AMINOTRANSFERASE / ALBUMIN / ALKALINE PHOSPHATASE / ASPARTATE AMINOTRANSFERASE / BLOOD UREA NITROGEN / CARBON DIOXIDE / CHLORIDE / CHOLESTEROL / CREATINE PHOSPHOKINASE / CREATININE / GLUCOSE / LACTATE DEHYDROGENASE / LIPASE / PHOSPHORUS / POTASSIUM / SODIUM / TOTAL BILIRUBIN / TOTAL PROTEIN / URIC ACID: tissue Plasma
[1] = 0 mg/kg, 72 h, dose level Control, time 3 day
[2] = 0 mg/kg, 120 h, dose level Control, time 5 day
[3] = 23 mg/kg, 72 h, dose level High, time 3 day

Structure (SMILES): COC(=O)C[C@](O)(CCC(C)(C)O)C(=O)O[C@@H]1C(OC)=C[C@]23CCCN2CCc2cc4c(cc2[C@H]13)OCO4 [HARRINGTONINE]
- ABSOLUTE BASOPHIL [1]: 0 CELLS/uL
- ABSOLUTE EOSINOPHIL [1]: 15.33 CELLS/uL
- ABSOLUTE LYMPHOCYTE [1]: 9513.5 CELLS/uL
- ABSOLUTE MONOCYTE [1]: 94.67 CELLS/uL
- ABSOLUTE SEGMENTED NEUTROPHIL [1]: 709.83 CELLS/uL
- BASOPHIL [1]: 0%
- EOSINOPHIL [1]: 0.17%
- ERYTHROCYTE COUNT [1]: 5.63 x10E6/uL
- HEMATOCRIT [1]: 34.63%
- HEMOGLOBIN [1]: 13.6 G/DL
- LEUKOCYTE COUNT [1]: 10.33 x10E3/uL
- LYMPHOCYTE [1]: 92%
- MEAN CORPUSCULAR HEMOGLOBIN [1]: 24.17 pg
- MEAN CORPUSCULAR HEMOGLOBIN CONCENTRATION [1]: 39.28 G/DL
- MEAN CORPUSCULAR VOLUME [1]: 61.57 fL
- MONOCYTE [1]: 0.83%
- NEUTROPHIL [1]: 7%
- NUCLEATED RED BLOOD CELLS [1]: 0 /100WBC
- PLATELET COUNT [1]: 903.17 x10E3/uL
- ALANINE AMINOTRANSFERASE [1]: 49.33 u/L
- ALBUMIN [1]: 4.27 G/DL
- ALKALINE PHOSPHATASE [1]: 400.83 u/L
- ASPARTATE AMINOTRANSFERASE [1]: 77.5 u/L
- BLOOD UREA NITROGEN [1]: 16.33 mg/dL
- CARBON DIOXIDE [1]: 29.33 mmol/L
- CHLORIDE [1]: 99.67 MEQ/L
- CHOLESTEROL [1]: 66.67 mg/dL
- CREATINE PHOSPHOKINASE [1]: 275.33 u/L
- CREATININE [1]: 0.18 mg/dL
- GLUCOSE [1]: 163.83 mg/dL
- LACTATE DEHYDROGENASE [1]: 125.33 u/L
- LIPASE [1]: 10 u/L
- PHOSPHORUS [1]: 12.12 mg/dL
- POTASSIUM [1]: 6.68 MEQ/L
- SODIUM [1]: 144.02 MEQ/L
- TOTAL BILIRUBIN [1]: 0.18 mg/dL
- TOTAL PROTEIN [1]: 5.87 G/DL
- URIC ACID [1]: 1.63 mg/dL
- ABSOLUTE BASOPHIL [2]: 0 CELLS/uL
- ABSOLUTE EOSINOPHIL [2]: 48.83 CELLS/uL
- ABSOLUTE LYMPHOCYTE [2]: 14562 CELLS/uL
- ABSOLUTE MONOCYTE [2]: 138.67 CELLS/uL
- ABSOLUTE SEGMENTED NEUTROPHIL [2]: 1733.83 CELLS/uL
- BASOPHIL [2]: 0%
- EOSINOPHIL [2]: 0.33%
- ERYTHROCYTE COUNT [2]: 5.89 x10E6/uL
- HEMATOCRIT [2]: 36.7%
- HEMOGLOBIN [2]: 14.42 G/DL
- LEUKOCYTE COUNT [2]: 16.48 x10E3/uL
- LYMPHOCYTE [2]: 88.83%
- MEAN CORPUSCULAR HEMOGLOBIN [2]: 24.52 pg
- MEAN CORPUSCULAR HEMOGLOBIN CONCENTRATION [2]: 39.3 G/DL
- MEAN CORPUSCULAR VOLUME [2]: 62.37 fL
- MONOCYTE [2]: 0.67%
- NEUTROPHIL [2]: 10.17%
- NUCLEATED RED BLOOD CELLS [2]: 0 /100WBC
- PLATELET COUNT [2]: 1076.5 x10E3/uL
- ALANINE AMINOTRANSFERASE [2]: 44.67 u/L
- ALBUMIN [2]: 4.23 G/DL
- ALKALINE PHOSPHATASE [2]: 357.33 u/L
- ASPARTATE AMINOTRANSFERASE [2]: 84.83 u/L
- BLOOD UREA NITROGEN [2]: 15.5 mg/dL
- CARBON DIOXIDE [2]: 27 mmol/L
- CHLORIDE [2]: 99.5 MEQ/L
- CHOLESTEROL [2]: 63.67 mg/dL
- CREATINE PHOSPHOKINASE [2]: 331.33 u/L
- CREATININE [2]: 0.18 mg/dL
- GLUCOSE [2]: 167.33 mg/dL
- LACTATE DEHYDROGENASE [2]: 320.17 u/L
- LIPASE [2]: 9.17 u/L
- PHOSPHORUS [2]: 12.05 mg/dL
- POTASSIUM [2]: 6.54 MEQ/L
- SODIUM [2]: 143.02 MEQ/L
- TOTAL BILIRUBIN [2]: 0.2 mg/dL
- TOTAL PROTEIN [2]: 6.23 G/DL
- URIC ACID [2]: 2.07 mg/dL
- ABSOLUTE BASOPHIL [3]: 0 CELLS/uL
- ABSOLUTE EOSINOPHIL [3]: 0 CELLS/uL
- ABSOLUTE LYMPHOCYTE [3]: 9185.67 CELLS/uL
- ABSOLUTE MONOCYTE [3]: 0 CELLS/uL
- ABSOLUTE SEGMENTED NEUTROPHIL [3]: 547.67 CELLS/uL
- BASOPHIL [3]: 0%
- EOSINOPHIL [3]: 0%
- ERYTHROCYTE COUNT [3]: 5.37 x10E6/uL
- HEMATOCRIT [3]: 32.9%
- HEMOGLOBIN [3]: 12.87 G/DL
- LEUKOCYTE COUNT [3]: 9.73 x10E3/uL
- LYMPHOCYTE [3]: 94.33%
- MEAN CORPUSCULAR HEMOGLOBIN [3]: 23.97 pg
- MEAN CORPUSCULAR HEMOGLOBIN CONCENTRATION [3]: 39.1 G/DL
- MEAN CORPUSCULAR VOLUME [3]: 61.2 fL
- MONOCYTE [3]: 0%
- NEUTROPHIL [3]: 5.67%
- NUCLEATED RED BLOOD CELLS [3]: 0 /100WBC
- PLATELET COUNT [3]: 883 x10E3/uL
- ALANINE AMINOTRANSFERASE [3]: 44.67 u/L
- ALBUMIN [3]: 3.57 G/DL
- ALKALINE PHOSPHATASE [3]: 237.67 u/L
- ASPARTATE AMINOTRANSFERASE [3]: 76 u/L
- BLOOD UREA NITROGEN [3]: 14.67 mg/dL
- CARBON DIOXIDE [3]: 24.67 mmol/L
- CHLORIDE [3]: 101 MEQ/L
- CHOLESTEROL [3]: 58.33 mg/dL
- CREATINE PHOSPHOKINASE [3]: 746.33 u/L
- CREATININE [3]: 0.17 mg/dL
- GLUCOSE [3]: 168.33 mg/dL
- LACTATE DEHYDROGENASE [3]: 240.33 u/L
- LIPASE [3]: 8 u/L
- PHOSPHORUS [3]: 11.7 mg/dL
- POTASSIUM [3]: 5.94 MEQ/L
- SODIUM [3]: 141.53 MEQ/L
- TOTAL BILIRUBIN [3]: 0.2 mg/dL
- TOTAL PROTEIN [3]: 5.2 G/DL
- URIC ACID [3]: 1.93 mg/dL
